The target of data set [1] is T1, RSV fusion (A2_F) (Human respiratory syncytial virus A, UniProt P03420).
T1 construct: expressed in transfected cells; host or cells: HEK 293T/17
Kind of data set: RSV fusion assay (luciferase reporter, transfected HEK 293T/17 cells). The format is cell-based. The method, then: HEK 293T/17 cells were cultured in T75 culture flasks in Dulbecco's medium containing 10% FBS and 1× Penicillin-Streptomycin and warmed to 37° C. prior to use. The cells were passaged by first washing briefly with 3 ml PBS followed by a 4 min incubation with […] at 37° C. 7 ml media was then added to the flask and the cells dispersed via pipetting (×3) against the bottom of the flask. Two further T75 flasks were each seeded with 2×10^6 cells in 15 ml fresh media.
Cells were seeded on the T75 plates at the same density as on the 6-well plates to the area of a T75 flask and one 1.75 cm radius well from a 6-well plate were compared. 7.79×2 ml of 3×10^5 cells ml^−1 was used to seed a single T75 flask.
HEK cells were removed from a T75 flask as described above. The cells were counted and diluted to 3×10^5 cells/ml in fresh media. Two T75 flasks were each seeded with 15.58 ml diluted cells.
The plasmid DNA (for pFR-Luc and pcDNA3.1_Gal4/NFκB) to be transfected into the HEK cells was first prepared in serum free media (DMEM+Pen/Strep) containing the transfection reagent Fugene 6 (Promega). Transfections were set up as follows (Luc=pFR_Luc, Gal4=pcDNA3.1+_Gal4/NFκB, A2_F=pcDNA3.1+_A2_F)
Serum free media was placed in a 1.5 ml eppendorf tube then the fugene 6 was added into the media. The tube was vortexed for 1 s before being incubated at RT for 5 min. The plasmid DNA was then added to the tube, vortexed for 1 s, then incubated at RT for 15 min
The transfection reagents were then added to the appropriate T75 flask by tipping the flask on end and adding the reagents directly to the media already in the flask. […]
Luminescence was measured at appropriate time points as follows:
Media was discarded into Virkon and the plates washed with 100 ul PBS per well. […] Add 100 μl working luciferin buffer to each well and luminescence was measured immediately.
Media was discarded into Virkon and 100 ul SFM+20 ul CellTitre-Blue solution was added to each well. […] Resorufin fluorescence was measured at 590 nm.
In general terms: A reporter such as luciferase makes a cellular process visible.

Data set [2] can be described thus: Liver microsomal stability, human. The format is in vitro ADME. The conditions noted are these: both sexes, pH 7.4, human liver microsomes. As to the method:
(§1) Microsomal Incubation: Experimental Procedure
(§2) Pooled human liver microsomes (pooled male and female), pooled rat liver microsomes (male Sprague Dawley rats) and pooled dog liver microsomes (male Beagle dog) are purchased from a reputable commercial supplier and stored at −80° C. prior to use.
Microsomes (final protein concentration 0.5 mg/mL), 0.1 M phosphate buffer pH 7.4 and test compound (final substrate concentration 3 μM; final DMSO concentration 0.25%) are pre-incubated at 37° C. prior to the addition of NADPH (final concentration 1 mM) to initiate the reaction. The final incubation volume is 50 μL. A control incubation is included for each compound tested where 0.1 M phosphate buffer pH 7.4 is added instead of NADPH (minus NADPH). Two control compounds are included with each species. All incubations are performed singularly for each test compound.
Compounds are incubated for 0, 5, 15, 30 and 45 min. The control (minus NADPH) is incubated for 45 min only. The reactions are stopped by transferring 25 μL of incubate to 50 μL methanol at the appropriate time points. The termination plates are centrifuged at 2,500 rpm for 20 min at 4° C. to precipitate the protein. Following protein precipitation, the sample supernatants are combined in cassettes of up to 4 compounds, internal standard is added and samples analysed by LC-MS/MS. From a plot of ln peak area ratio (compound peak area/internal standard peak area) against time, the gradient of the line is determined. Subsequently, half-life and intrinsic clearance are calculated
In general terms: Liver microsomes are vesicles of endoplasmic reticulum, rich in cytochrome P450 enzymes.

A short description of data set [3]: Liver microsomal stability, rat. The conditions noted are these: male, Sprague Dawley. The format is in vitro ADME. As to the method: as §1, §2
The final incubation volume is 50 μL. A control incubation is included for each compound tested where 0.1 M phosphate buffer pH 7.4 is added instead of NADPH (minus NADPH). Two control compounds are included with each species. All incubations are performed singularly for each test compound.
The reactions are stopped by transferring 25 μL of incubate to 50 μL methanol at the appropriate time points. The termination plates are centrifuged at 2,500 rpm for 20 min at 4° C. to precipitate the protein. Following protein precipitation, the sample supernatants are combined in cassettes of up to 4 compounds, internal standard is added and samples analysed by LC-MS/MS. From a plot of ln peak area ratio (compound peak area/internal standard peak area) against time, the gradient of the line is determined. Subsequently, half-life and intrinsic clearance are calculated

Where only a bound is given, the exact number is not on record here.

T1 sequence (P03420 26-109): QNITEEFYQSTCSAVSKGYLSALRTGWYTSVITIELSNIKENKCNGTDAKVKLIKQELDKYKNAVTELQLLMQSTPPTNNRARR
T1 sequence (P03420 137-574): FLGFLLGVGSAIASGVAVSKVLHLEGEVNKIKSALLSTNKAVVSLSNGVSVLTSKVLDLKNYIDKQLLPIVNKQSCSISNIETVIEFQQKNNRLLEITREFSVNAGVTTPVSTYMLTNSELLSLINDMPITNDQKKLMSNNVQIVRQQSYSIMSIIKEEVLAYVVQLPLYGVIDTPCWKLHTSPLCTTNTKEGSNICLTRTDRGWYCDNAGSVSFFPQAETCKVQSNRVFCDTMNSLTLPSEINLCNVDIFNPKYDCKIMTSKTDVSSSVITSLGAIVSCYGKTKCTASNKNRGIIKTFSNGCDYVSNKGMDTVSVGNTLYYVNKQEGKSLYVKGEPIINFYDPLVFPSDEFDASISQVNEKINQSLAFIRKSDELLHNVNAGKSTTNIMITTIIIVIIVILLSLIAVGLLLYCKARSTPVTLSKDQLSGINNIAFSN

As to `NCc1ccc2c(c1)nc(CN1C(=O)C3(CC3)c3ccc(F)cc31)n2CCCC(F)(F)F` [Example 1, 1′-{[5-(Aminomethyl)-1-(4,4,4-trifluorobutyl)-1H-1,3-benzodiazol-2-yl]methyl}-6′-fluoro-1′,2′-dihydrospiro[cyclopropane-1,3′-indole]-2′-one], the IC50 (in general, the point on the concentration scale where inhibition reaches its midpoint) in data set [1] came to 1.1 nM. Besides, the IC90 (in general, the point of the concentration-response curve where the effect stands at 90%) in data set [1] (HEK293T/17, read-out: RSV Fusion Assay IC90) came out at 9.4 nM. Further, the half-life at 3 μM turned out to be 32 min in data set [2] (3 μM compound, read-out: Liver Microsomal Stability T1/2, human) and 80 min in data set [3] (pH 7.4, rat liver microsomes, 3 μM compound, read-out: Liver Microsomal Stability T1/2, rat).

As to `CC(C)CCn1c(CN2C(=O)C3(CC3)c3ccccc32)nc2cc(CN)ccc21` [RV039, 1′-((5-(aminomethyl)-1-isopentyl-1H-benzo[d]imidazol-2-yl)methyl)spiro[cyclopropane-1,3′-indolin]-2′-one, reference compound], half-maximal inhibition in data set [1] (IC50) was put at 10 nM. The half-life at 3 μM was 5 min in data set [2] (Comparative Example 2, read-out: Liver Microsomal Stability T1/2, human (Table 5)) and more than 95 min in data set [3] (pooled liver microsomes, pH 7.4, Comparative Example 2, read-out: Liver Microsomal Stability T1/2, rat (Table 5)).

The record behind these values is patent US10106539B2, “Spiro-indolines for the treatment and prophylaxis of respiratory syncytial virus infection (RSV)” (REVIRAL LIMITED, priority 2014, dated 2018).
